# Experimental data published in publication PMC11876601 (Molecular Systems Biology, 2025).
# Where two headings read alike, the source gives them in different places.
# What was measured:
# [1] = system: MAPK8; parameters: method as in Reinecke et al. (2023); details: MAPK8, 5 cell line mix lysate, Kinobeads ε, ref Reinecke et al. (2023), cited from earlier work
# [2] = system: MARK2; details: MARK2, 5 cell line mix lysate, Kinobeads ε, ref Reinecke et al. (2023), cited from earlier work
# [3] = system: MAP3K11; details: MAP3K11, 5 cell line mix lysate, Kinobeads ε, ref Reinecke et al. (2023), cited from earlier work
# [4] = system: CLK4; parameters: method as in Reinecke et al. (2023); details: CLK4, 5 cell line mix lysate, Kinobeads ε, ref Reinecke et al. (2023), cited from earlier work
# [5] = system: RPS6KA6; parameters: method as in Reinecke et al. (2023); details: RPS6KA6, 5 cell line mix lysate, Kinobeads ε, ref Reinecke et al. (2023), cited from earlier work
# [6] = system: FGFR3;FGFR4; parameters: method as in Reinecke et al. (2023); details: FGFR3;FGFR4, 5 cell line mix lysate, Kinobeads ε, ref Reinecke et al. (2023), cited from earlier work
# [7] = system: CLK2; parameters: method as in Reinecke et al. (2023); details: CLK2, 5 cell line mix lysate, Kinobeads ε, ref Reinecke et al. (2023), cited from earlier work
# [8] = system: PSN-1 cells; assay: Drug combination viability screen (ATPlite, 72 h); format: cell-based, human; details: for EC50: Homo sapiens, PSN1;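 for AUC: area under vehicle-normalized viability curve scaled 0 to 100 percent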;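 for Curve bottom: fraction of vehicle control viability from four-parameter log-logistic fit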
# [9] = system: MOB1A;MOB1B; parameters: method as in Klaeger et al. (2017); details: 4 cell line mix lysate, Kinobeads y, ref Klaeger et al. (2017); cited from earlier work
# [10] = system: PRKX; parameters: method as in Klaeger et al. (2017); details: lysate 4 cell line mix (Colo205, K-562, MV-4-11, and SK-N-BE(2)), Kinobeads y, ref Klaeger et al. (2017); cited from earlier work
smiles,measurement,setting,value
COc1cc(N2CCC(N3CCN(C)CC3)CC2)ccc1Nc1ncc(Cl)c(Nc2ccccc2P(C)(C)=O)n1 [Brigatinib],EC50,[1],2200 nM
same,pKDapp,[1],5.85
same,Kd,[1]; read-out: KDapp,1420 nM
same,EC50,[2],247 nM
same,pKDapp,[2],6.73
same,Kd,[2]; read-out: KDapp,186 nM
same,EC50,[3],3200 nM
same,pKDapp,[3],5.65
same,Kd,[3]; read-out: KDapp,2230 nM
same,EC50,[4],49.2 nM
same,pKDapp,[4],7.38
same,Kd,[4]; read-out: KDapp,41.6 nM
same,EC50,[5],93.6 nM
same,pKDapp,[5],7.40
same,Kd,[5]; read-out: KDapp,39.5 nM
same,EC50,[6],617 nM
same,pKDapp,[6],6.21
same,Kd,[6]; read-out: KDapp,617 nM
same,EC50,[7],686 nM
same,pKDapp,[7],6.35
same,Kd,[7]; read-out: KDapp,444 nM
"Nc1ccn([C@@H]2O[C@H](CO)[C@@H](O)C2(F)F)c(=O)n1 [GEM, Gemcitabine]",EC50,[8]; read-out: EC50,3.44 nM
same,EC50,[8]; read-out: pEC50 (converted),3.47 nM
same,Reponse,"[8]; PSN-1, R1, 13.72 nM",1225440
same,Reponse,"[8]; PSN-1, R1, 41.15 nM",969400
same,Reponse,"[8]; PSN-1, R1, […] nM",806840
same,Reponse,"[8]; PSN-1, R1, 370.37 nM",818640
same,Reponse,"[8]; PSN-1, R1, 1111.11 nM",786440
same,Reponse,"[8]; PSN-1, R1, 3333.33 nM",785720
same,Reponse,"[8]; PSN-1, R1, 10000 nM",723120
same,Reponse,"[8]; PSN-1, replicate R2, dose 13.72 nM, raw signal",1542400
same,Reponse,"[8]; PSN-1, replicate R2, dose 41.15 nM, raw signal",1210080
same,Reponse,"[8]; PSN-1, replicate R2, dose 123.46 nM, raw signal",1089000
same,Reponse,"[8]; PSN-1, replicate R2, dose 370.37 nM, raw signal",1103640
same,Reponse,"[8]; PSN-1, replicate R2, dose 1111.11 nM, raw signal",1004960
same,Reponse,"[8]; PSN-1, replicate R2, dose 3333.33 nM, raw signal",1071400
same,Reponse,"[8]; PSN-1, replicate R2, dose 10000 nM, raw signal",1052080
same,AUC,"[8]; PSN-1, GEM curve fit",35.4%
same,Curve bottom,"[8]; PSN-1, GEM curve fit",0.11
same,Curve effect size,"[8]; PSN-1, GEM curve fit",0.89
same,Curve slope,"[8]; PSN-1, GEM curve fit",2.16
same,Curve top,"[8]; PSN-1, GEM curve fit",1.03
C[C@]12O[C@H](C[C@]1(O)CO)n1c3ccccc3c3c4c(c5c6ccccc6n2c5c31)CNC4=O [Lestaurtinib],EC50,[9],34 nM
